Results published in ChEMBL document CHEMBL5528048, “Discovery of Novel Potent and Fast BTK PROTACs for the Treatment of Osteoclasts-Related Inflammatory Diseases” (J Med Chem, 2024).
Calls of active or inactive are those of the source. No cut-off for these calls is given here.

Legend:
[1] = molecular target: T1, Tyrosine-protein kinase BTK (Homo sapiens, UniProt Q06187); assay: Binding affinity to BTK (unknown origin) assessed as inhibition constant measured after 60 mins incubation by microtiter-plate reader
T1 sequence (Q06187 whole entry): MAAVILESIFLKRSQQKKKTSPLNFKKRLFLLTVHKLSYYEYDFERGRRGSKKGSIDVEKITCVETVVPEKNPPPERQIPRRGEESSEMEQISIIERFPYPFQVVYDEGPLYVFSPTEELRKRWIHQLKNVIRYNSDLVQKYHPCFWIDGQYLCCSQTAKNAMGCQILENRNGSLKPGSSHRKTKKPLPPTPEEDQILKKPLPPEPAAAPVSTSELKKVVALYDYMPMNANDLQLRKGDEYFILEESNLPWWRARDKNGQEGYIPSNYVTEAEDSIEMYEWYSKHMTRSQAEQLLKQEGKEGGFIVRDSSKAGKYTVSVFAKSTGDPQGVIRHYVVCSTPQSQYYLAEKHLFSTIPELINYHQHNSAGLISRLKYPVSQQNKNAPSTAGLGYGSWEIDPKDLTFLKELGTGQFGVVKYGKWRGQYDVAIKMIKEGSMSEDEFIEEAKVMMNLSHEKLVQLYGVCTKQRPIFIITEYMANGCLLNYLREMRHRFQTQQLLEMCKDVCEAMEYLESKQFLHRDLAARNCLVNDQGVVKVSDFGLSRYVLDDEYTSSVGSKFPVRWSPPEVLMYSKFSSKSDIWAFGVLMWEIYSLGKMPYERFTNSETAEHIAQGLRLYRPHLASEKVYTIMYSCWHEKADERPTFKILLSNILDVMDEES

Mus musculus [2] = assay: Antiosteoclastogenic effects in LPS-soaked ligature-induced C57BL/6J mouse periodontal disease model assessed as reduction in periodontal alveolar bone loss by measuring increase in bone volume per tissue volume (BV/TV%) at 10 to 30 mg/kg, ip treated on day 0, 1,4, 7 and measured on day 10 by Micro-CT 3D scan; type: functional, organism-based; details: dose 10-30 mg/kg, time 7.0 day
[3] = molecular target: T2, Protein cereblon/Tyrosine-protein kinase BTK (Mus musculus) (UniProt P35991+Q8C7D2); assay: PROTAC activity at BTK/CRBN in C57BL/6J mouse BMM cells assessed as reduction in mCSF/RANKL-stimulated NFATc1 protein expression at 25 to 100 nM followed by stimulated with mCSF/RANKL measured after 2 hrs by Western blot analysis; type: cell-based; details: BMDM, dose 25-100 nM
T2 sequence (P35991 whole entry, looked up): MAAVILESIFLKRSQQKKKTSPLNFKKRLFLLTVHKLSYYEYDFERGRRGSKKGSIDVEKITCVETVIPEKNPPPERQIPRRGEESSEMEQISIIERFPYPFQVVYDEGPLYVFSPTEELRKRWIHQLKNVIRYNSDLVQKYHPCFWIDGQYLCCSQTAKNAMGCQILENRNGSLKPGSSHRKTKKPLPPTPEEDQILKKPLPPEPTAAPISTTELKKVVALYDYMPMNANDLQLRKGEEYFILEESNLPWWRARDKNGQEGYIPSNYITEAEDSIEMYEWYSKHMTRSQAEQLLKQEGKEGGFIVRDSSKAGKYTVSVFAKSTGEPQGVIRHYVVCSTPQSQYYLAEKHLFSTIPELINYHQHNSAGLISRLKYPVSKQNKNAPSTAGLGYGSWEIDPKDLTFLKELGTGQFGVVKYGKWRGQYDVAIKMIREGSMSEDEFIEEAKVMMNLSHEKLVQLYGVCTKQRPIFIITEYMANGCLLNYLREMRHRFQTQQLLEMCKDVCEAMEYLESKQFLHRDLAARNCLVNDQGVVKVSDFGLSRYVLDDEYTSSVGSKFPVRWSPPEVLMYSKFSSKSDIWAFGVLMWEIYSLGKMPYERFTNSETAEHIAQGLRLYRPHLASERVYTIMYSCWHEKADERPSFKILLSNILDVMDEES
T2 sequence (Q8C7D2 whole entry, looked up): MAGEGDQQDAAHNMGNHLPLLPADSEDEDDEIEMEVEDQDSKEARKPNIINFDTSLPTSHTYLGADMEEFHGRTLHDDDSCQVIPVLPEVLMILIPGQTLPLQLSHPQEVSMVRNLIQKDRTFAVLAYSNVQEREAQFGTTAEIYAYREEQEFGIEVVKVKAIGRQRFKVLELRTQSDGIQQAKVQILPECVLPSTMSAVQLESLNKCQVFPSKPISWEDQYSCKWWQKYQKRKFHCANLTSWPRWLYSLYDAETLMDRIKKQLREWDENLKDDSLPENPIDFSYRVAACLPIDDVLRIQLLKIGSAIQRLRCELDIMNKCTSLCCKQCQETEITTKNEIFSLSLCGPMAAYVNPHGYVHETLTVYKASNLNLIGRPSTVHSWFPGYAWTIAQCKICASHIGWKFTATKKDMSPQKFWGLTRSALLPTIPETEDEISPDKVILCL

[4] = molecular target: T3, Protein cereblon/Tyrosine-protein kinase BTK (Homo sapiens, UniProt Q06187+Q96SW2); assay: PROTAC activity at BTK/CRBN in human MINO cells assessed as BTK protein degradation by measuring onset time activity at 20 nM by Western blotting analysis; type: cell-based
Target sequence in this assay (Q06187 2-659 limits assumed): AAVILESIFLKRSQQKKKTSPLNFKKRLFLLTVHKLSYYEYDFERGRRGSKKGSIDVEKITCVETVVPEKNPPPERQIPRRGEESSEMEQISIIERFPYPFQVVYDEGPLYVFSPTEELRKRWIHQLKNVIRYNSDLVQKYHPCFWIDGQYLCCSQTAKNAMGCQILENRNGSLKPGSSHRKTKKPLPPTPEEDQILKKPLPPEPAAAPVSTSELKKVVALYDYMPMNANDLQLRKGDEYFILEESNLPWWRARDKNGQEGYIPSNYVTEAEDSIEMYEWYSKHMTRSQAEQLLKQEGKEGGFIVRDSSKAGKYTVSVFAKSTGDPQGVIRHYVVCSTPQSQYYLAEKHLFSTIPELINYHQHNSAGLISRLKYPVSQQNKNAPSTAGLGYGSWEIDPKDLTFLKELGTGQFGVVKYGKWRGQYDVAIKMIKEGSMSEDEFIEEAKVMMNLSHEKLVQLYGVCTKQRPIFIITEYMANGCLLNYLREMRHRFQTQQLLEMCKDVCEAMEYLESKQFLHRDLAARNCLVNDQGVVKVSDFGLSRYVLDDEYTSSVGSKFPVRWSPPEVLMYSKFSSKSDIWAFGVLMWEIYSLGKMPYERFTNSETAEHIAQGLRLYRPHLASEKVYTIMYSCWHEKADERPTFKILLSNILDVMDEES
Target sequence in this assay (Q96SW2 whole entry partner): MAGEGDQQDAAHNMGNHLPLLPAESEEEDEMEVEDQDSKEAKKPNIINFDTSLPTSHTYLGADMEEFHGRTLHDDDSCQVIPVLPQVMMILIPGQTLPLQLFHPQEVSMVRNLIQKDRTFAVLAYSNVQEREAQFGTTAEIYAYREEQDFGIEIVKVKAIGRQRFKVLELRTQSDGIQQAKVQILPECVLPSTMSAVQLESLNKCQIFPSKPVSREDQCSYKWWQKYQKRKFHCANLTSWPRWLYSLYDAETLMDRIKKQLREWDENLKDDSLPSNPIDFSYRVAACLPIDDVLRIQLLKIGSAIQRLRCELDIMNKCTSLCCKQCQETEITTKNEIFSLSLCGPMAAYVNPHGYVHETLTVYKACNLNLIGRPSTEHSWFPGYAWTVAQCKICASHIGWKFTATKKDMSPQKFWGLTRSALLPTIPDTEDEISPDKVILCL

BMMC [5] = assay: Cytotoxicity against C57BL/6J mouse BMM cells assessed as cell viability at 10 uM measured after 1 to 2 hrs by CCK8 assay; type: toxicity, cell-based; details: time 1-2 hrs
[6] = molecular target: T2, Protein cereblon/Tyrosine-protein kinase BTK (Mus musculus); assay: PROTAC activity at BTK/CRBN in mCSF/RANKL-stimulated C57BL/6J mouse BMDM assessed as reduction in phosphorylated PLCgamma2 protein level at 25 to 100 nM followed by stimulated with mCSF/RANKL measured after 2 hrs by Western blotting analysis; type: cell-based; details: dose 25-100 nM
Mus musculus [7] = assay: Antiosteoclastogenic effects in LPS-soaked ligature-induced C57BL/6J mouse periodontal disease model assessed as reduction in periodontal alveolar bone loss at 30 mg/kg, ip treated on day 0, 1,4, 7 and measured on day 10 by Micro-CT 3D scan; type: functional, organism-based; details: time 7.0 day
[8] = molecular target: T2, Protein cereblon/Tyrosine-protein kinase BTK (Mus musculus); assay: PROTAC activity at BTK/CRBN in mCSF/RANKL-stimulated C57BL/6J mouse BMDM assessed as BTK protein degradation at 25 to 100 nM followed by stimulated with mCSF/RANKL measured after 2 hrs by Western blotting analysis; type: cell-based; details: dose 25-100 nM
BMMC [9] = assay: Inhibition of RANKKL-induced upregulation of osteoclast related genes in C57BL/6J mouse BMM cells assessed as reduction in mCSF/RANKL-stimulated Dcstamp-gene expression at 25 to 100 nM followed by stimulated with mCSF/RANKL measured after 2 hrs by qPCR analysis; type: functional, cell-based; details: dose 25-100 nM
[10] = Apparent volume of distribution in Sprague-Dawley rat at 2 mg/kg, iv measured upto 48 hrs; type: ADME, organism-based; details: in vivo, read-out: Vz
[11] = molecular target: T3, Protein cereblon/Tyrosine-protein kinase BTK; assay: Binding affinity to BTK/CRBN (unknown origin) assessed as ternary complex formation by measuring peak HTRF ratio at wavelength 665/620 nm measured after 60 mins incubation by HTRF assay
Target sequence in this assay (Q06187 2-659 limits assumed): as the sequence (Q06187 2-659 limits assumed) above
Target sequence in this assay (Q96SW2 whole entry partner): as the sequence (Q96SW2 whole entry partner) above

[12] = Clearance in Sprague-Dawley rat at 2mg/kg, iv measured upto 48 hrs; type: ADME, organism-based; details: in vivo
BMMC [13] = assay: Inhibition of osteoclastogenesis in C57BL/6J mouse BMM cells assessed as inhibition of mCSF/RANKL-stimulated matured osteoclast formation measured after 5 days co-incubation by tartrate-resistant acid phosphatase (TRAP) staining assay; type: functional, cell-based; details: time 5.0 day
BMMC [14] = assay: Inhibition of RANKKL-induced upregulation of osteoclast related genes in C57BL/6J mouse BMM cells assessed as reduction in mCSF/RANKL-stimulated TRAP gene expression at 25 to 100 nM followed by stimulated with mCSF/RANKL measured after 2 hrs by qPCR analysis; type: functional, cell-based; details: dose 25-100 nM
BMMC [15] = assay: Inhibition of RANKKL-induced upregulation of osteoclast related genes in C57BL/6J mouse BMM cells assessed as reduction in mCSF/RANKL-stimulated NFATc1 gene expression at 25 to 100 nM followed by stimulated with mCSF/RANKL measured after 2 hrs by qPCR analysis; type: functional, cell-based; details: dose 25-100 nM
[16] = Bioavailability in Sprague-Dawley rat at 4 mg/kg, ip measured upto 48 hrs; type: ADME, organism-based; details: in vivo
[17] = AUC (0 to t) in Sprague-Dawley rat at 4 mg/kg, ip measured upto 48 hrs; type: ADME, organism-based; details: in vivo
[18] = molecular target: T3, Protein cereblon/Tyrosine-protein kinase BTK; assay: PROTAC activity at BTK/CRBN in human MINO cells assessed as BTK protein degradation at 20 nM measured after 24 hrs by Western blotting analysis relative to control; type: cell-based
Target sequence in this assay (Q06187 2-659 limits assumed): as the sequence (Q06187 2-659 limits assumed) above
Target sequence in this assay (Q96SW2 whole entry partner): as the sequence (Q96SW2 whole entry partner) above

[19] = molecular target: T3, Protein cereblon/Tyrosine-protein kinase BTK; assay: PROTAC activity at BTK/CRBN in human MINO cells assessed as BTK protein degradation at 100 nM measured after 24 hrs by Western blotting analysis relative to control; type: cell-based
Target sequence in this assay (Q06187 2-659 limits assumed): as the sequence (Q06187 2-659 limits assumed) above
Target sequence in this assay (Q96SW2 whole entry partner): as the sequence (Q96SW2 whole entry partner) above

[20] = Cmax in Sprague-Dawley rat at 4 mg/kg, ip measured upto 48 hrs; type: ADME, organism-based; details: in vivo
[21] = molecular target: T3, Protein cereblon/Tyrosine-protein kinase BTK; assay: PROTAC activity at BTK/CRBN in human MINO cells assessed as BTK protein degradation pretreated with 2 uM pomalidomide followed by 1 hr treated at 20 nM measured after 48 hrs by Western blotting analysis; type: cell-based; details: dose […]
Target sequence in this assay (Q06187 2-659 limits assumed): as the sequence (Q06187 2-659 limits assumed) above
Target sequence in this assay (Q96SW2 whole entry partner): as the sequence (Q96SW2 whole entry partner) above

Protein cereblon = Protein cereblon (Homo sapiens, UniProt Q96SW2); assay: Inhibition of CRBN (unknown origin) measured after 60 mins incubation by BMG reader
Sequence of Protein cereblon (Q96SW2 whole entry): as the sequence (Q96SW2 whole entry partner) above

[22] = molecular target: T3, Protein cereblon/Tyrosine-protein kinase BTK; assay: Binding affinity to BTK/CRBN (unknown origin) assessed as ternary complex formation measured after 60 mins incubation by HTRF assay
Target sequence in this assay (Q06187 whole entry): as the sequence (Q06187 whole entry) above
Target sequence in this assay (Q96SW2 whole entry): as the sequence (Q96SW2 whole entry partner) above

[23] = molecular target: T1, Tyrosine-protein kinase BTK; assay: Inhibition of BTK (unknown origin) measured after 60 mins incubation by microtiter-plate reader
[24] = molecular target: T3, Protein cereblon/Tyrosine-protein kinase BTK; assay: PROTAC activity at BTK/CRBN in human MINO cells assessed as BTK protein degradation measured for 4 hrs by Western blotting analysis; type: cell-based
Target sequence in this assay (Q06187 whole entry): as the sequence (Q06187 whole entry) above
Target sequence in this assay (Q96SW2 whole entry): as the sequence (Q96SW2 whole entry partner) above

Mus musculus [25] = assay: Antiosteoclastogenic effects in LPS-soaked ligature-induced C57BL/6J mouse periodontal disease model assessed as reduction in periodontal alveolar bone loss at 10 mg/kg, ip treated on day 0, 1,4, 7 and measured on day 10 by Micro-CT 3D scan; type: functional, organism-based; details: time 7.0 day
[26] = AUC (0 to infinity) in Sprague-Dawley rat at 2 mg/kg, iv measured upto 48 hrs; type: ADME, organism-based; details: in vivo
[27] = molecular target: T3, Protein cereblon/Tyrosine-protein kinase BTK; assay: Binding affinity to BTK/CRBN (unknown origin) assessed as ternary complex formation by measuring peak concentration measured after 60 mins incubation by HTRF assay
Target sequence in this assay (Q06187 2-659 limits assumed): as the sequence (Q06187 2-659 limits assumed) above
Target sequence in this assay (Q96SW2 whole entry partner): as the sequence (Q96SW2 whole entry partner) above

[28] = molecular target: T2, Protein cereblon/Tyrosine-protein kinase BTK (Mus musculus); assay: PROTAC activity at BTK/CRBN in mCSF/RANKL-stimulated C57BL/6J mouse BMDM assessed as reduction in phosphorylated BTK protein level at 25 to 100 nM followed by stimulated with mCSF/RANKL measured after 2 hrs by Western blotting analysis; type: cell-based; details: dose 25-100 nM
[29] = Apparent volume of distribution in Sprague-Dawley rat at 4 mg/kg, ip measured upto 48 hrs; type: ADME, organism-based; details: in vivo
[30] = molecular target: T3, Protein cereblon/Tyrosine-protein kinase BTK; assay: PROTAC activity at BTK/CRBN in human MINO cells assessed as BTK protein degradation half life at 20 nM by Western blotting analysis; type: cell-based
Mus musculus [31] = assay: Antiosteoclastogenic effects in LPS-soaked ligature-induced C57BL/6J mouse periodontal disease model assessed as reduction in periodontal alveolar bone loss by measuring distance between the alveolar bone crest (ABC) at 10 to 30 mg/kg, ip treated on day 0, 1,4, 7 and measured on day 10 by Micro-CT 3D scan; type: functional, organism-based; details: dose 10-30 mg/kg, time 7.0 day

## Cc1cc(-c2nc(Nc3cnn(C4CCN(CC5CCN(c6ccc7c(c6)C(=O)N(C6CCC(=O)NC6=O)C7=O)CC5)CC4)c3)ncc2F)ccc1CNC(=O)c1cn(C(C)(C)C)nn1 (configuration not stated)
[1]
  Ki: 152 nM
Mus musculus [2]
  Activity: Active
[3]
  Activity: Active
[4]
  TIME: < 0.5 h
BMMC [5]
  Activity: Non-Toxic
[6]
  Activity: Active
Mus musculus [7]
  Activity: Active
[8]
  Activity: inactive
BMMC [9]
  inhibition: Active
[10]
  Vd: 9.29 L/kg
[11]
  Ratio: 8.59
[12]
  clearance: 15.2 mL/min/kg
BMMC [13]
  inhibition: Active
BMMC [14]
  inhibition: Active
BMMC [15]
  Activity: Active
[16]
  bioavailability: 65.7%
[17]
  AUC(0-t) at 48 h: 2800 ng·h/mL
[18]
  Activity: 99%
[19]
  Activity: 99%
[20]
  Cmax: 184 ng/mL
[21]
  Activity: inactive
Protein cereblon
  IC50: 248 nM
[22]
  EC50: 4.28 nM
[23]
  IC50: 299 nM
[24]
  DC50: 1.29 nM
Mus musculus [25]
  Activity: Active
[26]
  AUC(0-inf): 2350 ng·h/mL
[27]
  Activity: 12.3 nM
[28]
  Activity: Active
[29]
  Vz: 30.04 L/kg
[30]
  T1/2: 35.4 min
Mus musculus [31]
  Activity: Active
